Patent publication US12486253B2, “Therapeutics for the degradation of mutant BRAF” (C4 THERAPEUTICS, INC., priority 2021, dated 2025)
Like-named read-outs stand apart in the source and are kept apart here.

Biological target: BRAF V600E (Homo sapiens, UniProt P15056, V600E)
Assay: HiBiT cellular BRAF^V600E degradation assay
Format: cell-based
Conditions: for DC50: concentration at which 50% of total cellular BRAF^V600E is degraded; for Emax: read-out: HiBit 24 h Emax
[1] = A375.10 cells, 24 h, residual protein remaining in the cell

Sequence of BRAF V600E (P15056 whole entry V600E): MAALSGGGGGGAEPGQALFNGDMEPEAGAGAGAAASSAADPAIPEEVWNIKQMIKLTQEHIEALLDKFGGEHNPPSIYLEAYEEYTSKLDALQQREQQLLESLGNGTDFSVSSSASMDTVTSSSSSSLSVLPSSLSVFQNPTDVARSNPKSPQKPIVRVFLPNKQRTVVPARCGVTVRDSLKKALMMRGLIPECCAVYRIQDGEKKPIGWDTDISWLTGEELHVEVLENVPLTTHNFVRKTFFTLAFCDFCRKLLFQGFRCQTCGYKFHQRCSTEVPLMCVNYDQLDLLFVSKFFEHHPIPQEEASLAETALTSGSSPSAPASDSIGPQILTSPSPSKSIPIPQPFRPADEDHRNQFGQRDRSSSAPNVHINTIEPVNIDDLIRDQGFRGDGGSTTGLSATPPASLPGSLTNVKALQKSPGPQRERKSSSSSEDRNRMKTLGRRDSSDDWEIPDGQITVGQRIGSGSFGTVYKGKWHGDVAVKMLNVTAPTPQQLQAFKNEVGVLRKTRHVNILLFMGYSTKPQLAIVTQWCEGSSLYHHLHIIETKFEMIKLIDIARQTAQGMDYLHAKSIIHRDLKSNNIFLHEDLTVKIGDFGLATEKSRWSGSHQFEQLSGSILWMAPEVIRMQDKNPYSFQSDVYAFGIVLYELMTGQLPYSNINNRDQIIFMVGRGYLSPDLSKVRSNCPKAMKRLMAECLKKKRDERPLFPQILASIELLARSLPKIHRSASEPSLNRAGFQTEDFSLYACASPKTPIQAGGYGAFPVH

Row | Structure (SMILES) | DC50 (A375.10 cells, 24 h) | Emax | Emax [1]
1 | CCN(C)S(=O)(=O)Nc1ccc(F)c(Oc2ccc3ncn(-c4cnc(N5CCN(C(=O)CN6CCC(c7cc(OC)c(NC8CCC(=O)NC8=O)cc7F)CC6)CC5)nc4)c(=O)c3c2)c1C#N (stereo not drawn) [Example 88, 6-[2-cyano-3-[[ethyl(methyl)sulfamoyl]amino]-6-fluorophenoxy]-3-[2-[4-[2-[4-[4-[(2,6-dioxopiperidin-3-yl)amino]-2-fluoro-5-methoxyphenyl]piperidin-1-yl]acetyl]piperazin-1-yl]pyrimidin-5-yl]-4-oxoquinazoline] | 0.0151 µM | 9.01% | 
2 | CCN(C)S(=O)(=O)Nc1ccc(F)c(Oc2ccc3ncn(-c4cnc(N5CCN(C(=O)CN6CCC(c7c(F)cc(NC8CCC(=O)NC8=O)cc7OC)CC6)CC5)nc4)c(=O)c3c2)c1C#N (stereo not drawn) [Example 89, 6-[2-cyano-3-[[ethyl(methyl)sulfamoyl]amino]-6-fluorophenoxy]-3-[2-[4-[2-[4-[4-[(2,6-dioxopiperidin-3-yl)amino]-2-fluoro-6-methoxyphenyl]piperidin-1-yl]acetyl]piperazin-1-yl]pyrimidin-5-yl]-4-oxoquinazoline] | 0.033 µM |  | 11.5%
3 | CCN(C)S(=O)(=O)Nc1ccc(F)c(Oc2ccc3ncn(-c4ccc(N5CCN(C(=O)CN6CCC(c7cc(OC)c(NC8CCC(=O)NC8=O)cc7F)CC6)CC5)nc4)c(=O)c3c2)c1C#N (stereo not drawn) [Example 90, 6-[2-cyano-3-[[ethyl(methyl)sulfamoyl]amino]-6-fluorophenoxy]-3-[6-[4-[2-[4-[4-[(2,6-dioxopiperidin-3-yl)amino]-2-fluoro-5-methoxyphenyl]piperidin-1-yl]acetyl]piperazin-1-yl]pyridin-3-yl]-4-oxoquinazoline] | 0.0235 µM | 10.7% | 
4 | CCN(C)S(=O)(=O)Nc1ccc(F)c(Oc2ccc3ncn(-c4cnc(N5CCN(C(=O)CN6CCC(c7ccc(N[C@H]8CCC(=O)NC8=O)cc7F)CC6)CC5)nc4)c(=O)c3c2)c1C#N [Example 92, 6-[2-cyano-3-[[ethyl(methyl)sulfamoyl]amino]-6-fluorophenoxy]-3-[2-[4-[2-[4-[4-[[(3S)-2,6-dioxopiperidin-3-yl]amino]-2-fluorophenyl]piperidin-1-yl]acetyl]piperazin-1-yl]pyrimidin-5-yl]-4-oxoquinazoline] | 0.00871 µM | 7.37% | 
5 | CCN(C)S(=O)(=O)Nc1ccc(F)c(Oc2ccc3ncn(-c4ccc(N5CCN(C(=O)CN6CCC(c7ccc(N[C@@H]8CCC(=O)NC8=O)cc7F)CC6)CC5)nc4)c(=O)c3c2)c1C#N [Example 93, 6-[2-cyano-3-[[ethyl(methyl)sulfamoyl]amino]-6-fluorophenoxy]-3-[6-[4-[2-[4-[4-[[(3R)-2,6-dioxopiperidin-3-yl]amino]-2-fluorophenyl]piperidin-1-yl]acetyl]piperazin-1-yl]pyridin-3-yl]-4-oxoquinazoline] | 0.028 µM |  | 14.1%
6 | CCN(C)S(=O)(=O)Nc1ccc(F)c(Oc2ccc3ncn(-c4ccc(N5CCN(C(=O)CN6CCC(c7ccc(N[C@H]8CCC(=O)NC8=O)cc7F)CC6)CC5)nc4)c(=O)c3c2)c1C#N [Example 94, 6-[2-cyano-3-[[ethyl(methyl)sulfamoyl]amino]-6-fluorophenoxy]-3-[6-[4-[2-[4-[4-[[(3S)-2,6-dioxopiperidin-3-yl]amino]-2-fluorophenyl]piperidin-1-yl]acetyl]piperazin-1-yl]pyridin-3-yl]-4-oxoquinazoline] | 0.0215 µM |  | 10.5%
7 | CCN(C)S(=O)(=O)Nc1ccc(F)c(Oc2ccc3ncn(-c4cnc(N5CCN(C(=O)CN6CCC(c7ccc(N[C@@H]8CCC(=O)NC8=O)cc7F)CC6)CC5)nc4)c(=O)c3c2)c1C#N [Example 95, 6-[2-cyano-3-[[ethyl(methyl)sulfamoyl]amino]-6-fluorophenoxy]-3-[2-[4-[2-[4-[4-[[(3R)-2,6-dioxopiperidin-3-yl]amino]-2-fluorophenyl]piperidin-1-yl]acetyl]piperazin-1-yl]pyrimidin-5-yl]-4-oxoquinazoline] | 0.0107 µM | 10.4% | 
8 | CO[C@@H]1CCN(S(=O)(=O)Nc2ccc(F)c(Oc3ccc4ncn(-c5cnc(N6CCN(C(=O)CN7CCC(c8ccc(N[C@H]9CCC(=O)NC9=O)cc8F)CC7)CC6)nc5)c(=O)c4c3)c2C#N)C1 [Example 96, (3R)—N-[2-cyano-3-[3-[2-[4-[2-[4-[4-[[(3S)-2,6-dioxopiperidin-3-yl]amino]-2-fluorophenyl]piperidin-1-yl]acetyl]piperazin-1-yl]pyrimidin-5-yl]-4-oxoquinazolin-6-yl]oxy-4-fluorophenyl]-3-methoxypyrrolidine-1-sulfonamide] | 0.00991 µM | 8.43% | 
9 | CO[C@@H]1CCN(S(=O)(=O)Nc2ccc(F)c(Oc3ccc4ncn(-c5cnc(N6CCN(C(=O)CN7CCC(c8ccc(N[C@@H]9CCC(=O)NC9=O)cc8F)CC7)CC6)nc5)c(=O)c4c3)c2C#N)C1 [Example 97, (3R)—N-[2-cyano-3-[3-[2-[4-[2-[4-[4-[[(3R)-2,6-dioxopiperidin-3-yl]amino]-2-fluorophenyl]piperidin-1-yl]acetyl]piperazin-1-yl]pyrimidin-5-yl]-4-oxoquinazolin-6-yl]oxy-4-fluorophenyl]-3-methoxypyrrolidine-1-sulfonamide] | 0.00841 µM |  | 10.6%
10 | CCN(C)S(=O)(=O)Nc1ccc(F)c(Oc2ccc3ncn(-c4cnc(N5CCN(C(=O)[C@H](CO)N6CCC(c7ccc(N[C@H]8CCC(=O)NC8=O)cc7F)CC6)CC5)nc4)c(=O)c3c2)c1C#N [Example 98, 6-[2-cyano-3-[[ethyl(methyl)sulfamoyl]amino]-6-fluorophenoxy]-3-[2-[4-[(2S)-2-[4-[4-[[(3S)-2,6-dioxopiperidin-3-yl]amino]-2-fluorophenyl]piperidin-1-yl]-3-hydroxypropanoyl]piperazin-1-yl]pyrimidin-5-yl]-4-oxoquinazoline] |  | 10.1% | 
11 | CCN(C)S(=O)(=O)Nc1ccc(F)c(Oc2ccc3ncn(-c4cnc(N5CCN(C(=O)CN6CCC(c7ccc(N[C@@H]8CCC(=O)NC8=O)cc7F)CC6)CC5)nc4)c(=O)c3c2OC)c1C#N [Example 99, 6-[2-cyano-3-[[ethyl(methyl)sulfamoyl]amino]-6-fluorophenoxy]-3-[2-[4-[2-[4-[4-[[(3R)-2,6-dioxopiperidin-3-yl]amino]-2-fluorophenyl]piperidin-1-yl]acetyl]piperazin-1-yl]pyrimidin-5-yl]-5-methoxy-4-oxoquinazoline] | 0.0342 µM |  | 11.4%
12 | CCN(C)S(=O)(=O)Nc1ccc(F)c(Oc2ccc3ncn(-c4cnc(N5CCN(C(=O)CN6CCC(c7ccc(N[C@H]8CCC(=O)NC8=O)cc7F)CC6)CC5)nc4)c(=O)c3c2OC)c1C#N [Example 100, 6-[2-cyano-3-[[ethyl(methyl)sulfamoyl]amino]-6-fluorophenoxy]-3-[2-[4-[2-[4-[4-[[(3S)-2,6-dioxopiperidin-3-yl]amino]-2-fluorophenyl]piperidin-1-yl]acetyl]piperazin-1-yl]pyrimidin-5-yl]-5-methoxy-4-oxoquinazoline] | 0.0164 µM |  | 8.4%
13 | CCN(C)S(=O)(=O)Nc1ccc(F)c(Oc2ccc3ncn(-c4cnc(N5CCN(C(=O)CN6CCC(c7ccc(N[C@@H]8CCC(=O)NC8=O)cc7F)CC6)CC5)nc4)c(=O)c3c2N)c1C#N [Example 101, 5-amino-6-[2-cyano-3-[[ethyl(methyl)sulfamoyl]amino]-6-fluorophenoxy]-3-[2-[4-[2-[4-[4-[[(3R)-2,6-dioxopiperidin-3-yl]amino]-2-fluorophenyl]piperidin-1-yl]acetyl]piperazin-1-yl]pyrimidin-5-yl]-4-oxoquinazoline] | 0.0277 µM |  | 11.6%
14 | N#Cc1c(NS(=O)(=O)C2CCCCC2)ccc(F)c1Oc1ccc2ncn(-c3cnc(N4CCN(C(=O)CN5CCC(c6ccc(N[C@H]7CCC(=O)NC7=O)cc6F)CC5)CC4)nc3)c(=O)c2c1 [Example 105, N-[2-cyano-3-[3-[2-[4-[2-[4-[4-[[(3S)-2,6-dioxopiperidin-3-yl]amino]-2-fluorophenyl]piperidin-1-yl]acetyl]piperazin-1-yl]pyrimidin-5-yl]-4-oxoquinazolin-6-yl]oxy-4-fluorophenyl]cyclohexanesulfonamide] | 0.0177 µM | 11.8% | 
15 | N#Cc1c(NS(=O)(=O)N2CCCCC2)ccc(F)c1Oc1ccc2ncn(-c3cnc(N4CCN(C(=O)CN5CCC(c6ccc(N[C@@H]7CCC(=O)NC7=O)cc6F)CC5)CC4)nc3)c(=O)c2c1 [Example 106, N-[2-cyano-3-[3-[2-[4-[2-[4-[4-[[(3R)-2,6-dioxopiperidin-3-yl]amino]-2-fluorophenyl]piperidin-1-yl]acetyl]piperazin-1-yl]pyrimidin-5-yl]-4-oxoquinazolin-6-yl]oxy-4-fluorophenyl]piperidine-1-sulfonamide] | 0.0436 µM | 16.7% | 
16 | N#Cc1c(NS(=O)(=O)N2CCCC2)ccc(F)c1Oc1ccc2ncn(-c3cnc(N4CCN(C(=O)CN5CCC(c6ccc(N[C@H]7CCC(=O)NC7=O)cc6F)CC5)CC4)nc3)c(=O)c2c1 [Example 107, N-[2-cyano-3-[3-[2-[4-[2-[4-[4-[[(3S)-2,6-dioxopiperidin-3-yl]amino]-2-fluorophenyl]piperidin-1-yl]acetyl]piperazin-1-yl]pyrimidin-5-yl]-4-oxoquinazolin-6-yl]oxy-4-fluorophenyl]pyrrolidine-1-sulfonamide] | 0.0129 µM | 9.8% | 
17 | N#Cc1c(NS(=O)(=O)C2CCCC2)ccc(F)c1Oc1ccc2ncn(-c3cnc(N4CCN(C(=O)CN5CCC(c6ccc(N[C@@H]7CCC(=O)NC7=O)cc6F)CC5)CC4)nc3)c(=O)c2c1 [Example 108, N-[2-cyano-3-[3-[2-[4-[2-[4-[4-[[(3R)-2,6-dioxopiperidin-3-yl]amino]-2-fluorophenyl]piperidin-1-yl]acetyl]piperazin-1-yl]pyrimidin-5-yl]-4-oxoquinazolin-6-yl]oxy-4-fluorophenyl]cyclopentanesulfonamide] | 0.0178 µM |  | 10.9%
